Experimental data reported in the Kinase Knowledgebase extract (Sharma et al. 2016).

Experiments:
Assay in all cases: Enzyme Assay
PIK3CG (human) = PIK3CG (human) (UniProt P48736)
PIK3CD (Human) = PIK3CD (Human) (UniProt O00329)
PIK3CA (human) = PIK3CA (human) (UniProt P42336)
PIK3CB (Human) = PIK3CB (Human) (UniProt P42338)
PIK3CB (Human), sequence (P42338 whole entry, looked up): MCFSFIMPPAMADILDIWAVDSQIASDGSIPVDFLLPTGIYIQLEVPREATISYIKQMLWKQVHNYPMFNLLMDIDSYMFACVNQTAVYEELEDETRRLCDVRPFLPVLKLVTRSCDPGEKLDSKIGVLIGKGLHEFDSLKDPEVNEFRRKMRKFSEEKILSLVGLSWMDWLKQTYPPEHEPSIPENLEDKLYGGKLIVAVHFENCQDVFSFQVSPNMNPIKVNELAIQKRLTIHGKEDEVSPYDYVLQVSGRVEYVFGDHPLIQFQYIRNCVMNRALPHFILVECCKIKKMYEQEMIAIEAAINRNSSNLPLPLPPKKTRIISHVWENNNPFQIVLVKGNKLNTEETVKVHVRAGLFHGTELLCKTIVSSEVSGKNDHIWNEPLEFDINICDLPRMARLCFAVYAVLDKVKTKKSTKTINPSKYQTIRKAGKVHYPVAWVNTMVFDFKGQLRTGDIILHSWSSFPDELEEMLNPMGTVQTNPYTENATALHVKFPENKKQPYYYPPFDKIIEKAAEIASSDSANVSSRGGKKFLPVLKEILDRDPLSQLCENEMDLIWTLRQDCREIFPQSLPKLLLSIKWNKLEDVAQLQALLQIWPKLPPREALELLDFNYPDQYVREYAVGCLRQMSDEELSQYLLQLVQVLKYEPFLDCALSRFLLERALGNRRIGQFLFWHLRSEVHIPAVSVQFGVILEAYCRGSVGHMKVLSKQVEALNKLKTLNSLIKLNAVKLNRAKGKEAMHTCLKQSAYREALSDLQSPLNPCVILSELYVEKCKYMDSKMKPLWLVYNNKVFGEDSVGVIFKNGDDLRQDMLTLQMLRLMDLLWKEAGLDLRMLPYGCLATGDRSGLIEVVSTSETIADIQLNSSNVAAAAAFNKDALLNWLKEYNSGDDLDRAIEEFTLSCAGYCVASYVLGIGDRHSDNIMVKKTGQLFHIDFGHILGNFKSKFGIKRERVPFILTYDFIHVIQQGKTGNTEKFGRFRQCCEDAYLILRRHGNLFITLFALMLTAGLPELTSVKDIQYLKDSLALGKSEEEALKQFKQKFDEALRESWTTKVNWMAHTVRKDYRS

PIK3CD (Human), sequence (O00329 whole entry, looked up): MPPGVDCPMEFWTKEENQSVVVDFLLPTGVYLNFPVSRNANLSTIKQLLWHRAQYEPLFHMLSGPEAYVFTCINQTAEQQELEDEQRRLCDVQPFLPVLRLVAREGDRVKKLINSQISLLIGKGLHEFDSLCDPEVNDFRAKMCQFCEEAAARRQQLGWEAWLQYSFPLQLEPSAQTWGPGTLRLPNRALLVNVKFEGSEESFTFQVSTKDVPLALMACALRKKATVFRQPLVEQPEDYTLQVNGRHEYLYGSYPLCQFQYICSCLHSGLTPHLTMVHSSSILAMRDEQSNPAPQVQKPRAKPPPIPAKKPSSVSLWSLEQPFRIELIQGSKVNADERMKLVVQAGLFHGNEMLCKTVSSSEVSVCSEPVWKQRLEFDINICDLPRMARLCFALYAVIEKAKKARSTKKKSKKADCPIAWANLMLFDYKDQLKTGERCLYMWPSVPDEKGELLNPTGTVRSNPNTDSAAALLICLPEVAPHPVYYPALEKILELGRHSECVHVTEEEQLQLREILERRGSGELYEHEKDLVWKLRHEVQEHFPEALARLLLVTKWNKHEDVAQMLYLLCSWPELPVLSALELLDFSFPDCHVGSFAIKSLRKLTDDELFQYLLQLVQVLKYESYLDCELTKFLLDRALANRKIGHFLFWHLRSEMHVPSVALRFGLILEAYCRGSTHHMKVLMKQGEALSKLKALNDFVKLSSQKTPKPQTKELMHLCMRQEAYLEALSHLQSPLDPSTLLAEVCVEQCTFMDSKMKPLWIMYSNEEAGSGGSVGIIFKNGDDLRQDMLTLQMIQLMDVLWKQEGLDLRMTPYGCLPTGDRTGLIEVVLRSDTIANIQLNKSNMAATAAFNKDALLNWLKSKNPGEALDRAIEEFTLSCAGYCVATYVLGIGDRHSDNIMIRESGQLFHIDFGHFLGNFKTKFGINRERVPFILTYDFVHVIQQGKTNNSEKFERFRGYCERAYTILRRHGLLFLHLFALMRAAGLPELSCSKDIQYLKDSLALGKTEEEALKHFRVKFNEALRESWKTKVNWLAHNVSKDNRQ
PIK3CG (human), sequence (P48736 whole entry, looked up): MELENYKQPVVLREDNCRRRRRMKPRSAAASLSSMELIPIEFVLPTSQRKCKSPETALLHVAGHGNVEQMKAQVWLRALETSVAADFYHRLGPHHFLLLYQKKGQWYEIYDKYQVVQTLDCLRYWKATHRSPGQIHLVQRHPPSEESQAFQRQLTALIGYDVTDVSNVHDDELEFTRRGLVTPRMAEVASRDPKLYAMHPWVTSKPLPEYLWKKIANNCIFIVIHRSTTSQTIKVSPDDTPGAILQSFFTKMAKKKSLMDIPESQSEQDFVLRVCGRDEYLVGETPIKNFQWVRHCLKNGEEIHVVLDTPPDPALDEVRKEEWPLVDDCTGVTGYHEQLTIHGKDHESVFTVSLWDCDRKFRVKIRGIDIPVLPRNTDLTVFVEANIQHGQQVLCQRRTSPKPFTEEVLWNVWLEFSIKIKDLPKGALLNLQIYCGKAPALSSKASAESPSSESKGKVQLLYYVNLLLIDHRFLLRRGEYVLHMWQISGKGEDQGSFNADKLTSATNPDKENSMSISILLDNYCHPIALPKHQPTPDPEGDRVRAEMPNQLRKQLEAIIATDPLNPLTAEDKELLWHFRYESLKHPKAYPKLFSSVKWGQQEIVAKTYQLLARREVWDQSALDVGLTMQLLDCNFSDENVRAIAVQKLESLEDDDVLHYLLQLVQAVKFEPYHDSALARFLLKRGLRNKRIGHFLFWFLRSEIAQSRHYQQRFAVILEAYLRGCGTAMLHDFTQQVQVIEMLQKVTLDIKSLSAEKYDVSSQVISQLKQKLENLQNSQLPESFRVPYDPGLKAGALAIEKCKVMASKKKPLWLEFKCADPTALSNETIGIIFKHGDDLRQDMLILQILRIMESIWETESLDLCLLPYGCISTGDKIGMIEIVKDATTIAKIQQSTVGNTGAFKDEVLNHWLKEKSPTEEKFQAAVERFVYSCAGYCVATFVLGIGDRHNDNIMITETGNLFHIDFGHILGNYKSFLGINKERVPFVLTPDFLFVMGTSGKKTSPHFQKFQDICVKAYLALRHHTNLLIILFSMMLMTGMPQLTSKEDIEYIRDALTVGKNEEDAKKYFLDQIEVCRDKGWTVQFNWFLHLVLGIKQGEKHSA
PIK3CA (human), sequence (P42336 whole entry, looked up): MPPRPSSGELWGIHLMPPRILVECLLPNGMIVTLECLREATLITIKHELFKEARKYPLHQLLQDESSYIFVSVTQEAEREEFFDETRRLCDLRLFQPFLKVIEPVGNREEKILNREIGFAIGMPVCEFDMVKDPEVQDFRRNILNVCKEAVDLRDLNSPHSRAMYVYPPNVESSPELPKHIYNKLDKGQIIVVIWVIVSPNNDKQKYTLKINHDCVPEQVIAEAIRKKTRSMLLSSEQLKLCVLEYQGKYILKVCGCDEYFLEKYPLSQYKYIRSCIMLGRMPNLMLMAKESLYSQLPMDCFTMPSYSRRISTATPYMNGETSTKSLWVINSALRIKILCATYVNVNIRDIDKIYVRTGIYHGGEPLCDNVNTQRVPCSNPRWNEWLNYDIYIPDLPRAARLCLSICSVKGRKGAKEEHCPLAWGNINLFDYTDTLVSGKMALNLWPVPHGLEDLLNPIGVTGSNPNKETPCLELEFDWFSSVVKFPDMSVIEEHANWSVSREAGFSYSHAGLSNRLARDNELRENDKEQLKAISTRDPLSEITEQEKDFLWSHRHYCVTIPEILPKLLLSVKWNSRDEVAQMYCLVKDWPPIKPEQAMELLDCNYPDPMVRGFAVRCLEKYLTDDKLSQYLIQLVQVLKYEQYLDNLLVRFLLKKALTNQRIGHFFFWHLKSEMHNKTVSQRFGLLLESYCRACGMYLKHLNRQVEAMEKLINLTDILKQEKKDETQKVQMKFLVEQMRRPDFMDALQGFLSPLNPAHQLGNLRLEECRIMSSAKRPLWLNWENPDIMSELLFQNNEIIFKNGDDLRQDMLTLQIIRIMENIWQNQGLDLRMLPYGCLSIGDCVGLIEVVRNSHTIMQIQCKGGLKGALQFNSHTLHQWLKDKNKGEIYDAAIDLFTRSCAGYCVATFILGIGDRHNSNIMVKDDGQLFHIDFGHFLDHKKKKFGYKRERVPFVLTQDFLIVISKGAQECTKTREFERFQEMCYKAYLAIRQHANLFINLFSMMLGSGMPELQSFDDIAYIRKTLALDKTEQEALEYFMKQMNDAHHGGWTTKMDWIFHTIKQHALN

Q: Which results are given for `Nc1ncc(-c2cc(N3CCOCC3)nc(N3CCOCC3)n2)c(C(F)(F)F)n1`?
A: IC50 (PIK3CG (human)): 464 nM; IC50 (PIK3CD (Human)): 80 nM

Q: `Nc1cc(C(F)(F)F)c(-c2cc(N3CCC(=O)CC3)nc(N3CCOCC3)n2)cn1` was tested. Which IC50 (PIK3CA (human)) did it give?
A: Its IC50 is 359 nM.

Q: What about the IC50 (PIK3CG (human)) of the same molecule?
A: Its IC50 is 4320 nM.

Q: What about the IC50 (PIK3CD (Human)) of the same molecule?
A: Its IC50 is 692 nM.

Q: What about the IC50 (PIK3CB (Human)) of the same molecule?
A: Its IC50 is 1250 nM.

Q: For `Nc1cc(C(F)(F)F)c(-c2cc(N3CCS(=O)(=O)CC3)nc(N3CCOCC3)n2)cn1`, which IC50 (PIK3CA (human)) is on record?
A: Its IC50 is 592 nM.

Q: What about the IC50 (PIK3CG (human)) of the same molecule?
A: The IC50 was 4630 nM.

Q: And the IC50 (PIK3CD (Human))?
A: Its IC50 is 2320 nM.

Q: What about the IC50 (PIK3CB (Human)) of the same molecule?
A: Its IC50 is 2750 nM.

Q: What does the source list for `C[C@H](O)C[C@H]1OC(=O)N(c2cc(-c3cnc(N)nc3C(F)(F)F)nc(N3CCOCC3)n2)[C@H]1C`?
A: IC50 (PIK3CA (human)): 5 nM; IC50 (PIK3CG (human)): 205 nM; IC50 (PIK3CB (Human)): 11 nM

Q: `Nc1cc(C(F)(F)F)c(-c2cc(N3CCOC(c4ccccc4)C3)nc(N3CCOCC3)n2)cn1` (stereo not given) was tested. Which IC50 (PIK3CA (human)) did it give?
A: The IC50 was 134 nM.

Q: What about the IC50 (PIK3CD (Human)) of the same molecule?
A: Its IC50 is 1040 nM.

Q: And the IC50 (PIK3CB (Human))?
A: The IC50 was 875 nM.

Q: For `Nc1cc(C(F)(F)F)c(-c2cc(N3CCCCC3=O)nc(N3CCOCC3)n2)cn1`, which IC50 (PIK3CA (human)) is on record?
A: The IC50 was 125 nM.

Q: What about the IC50 (PIK3CG (human)) of the same molecule?
A: The IC50 was 5270 nM.

Q: What about the IC50 (PIK3CD (Human)) of the same molecule?
A: Its IC50 is 296 nM.

Q: What about the IC50 (PIK3CB (Human)) of the same molecule?
A: Its IC50 is 214 nM.

Q: How did the IC50 (PIK3CA (human)) turn out when `Nc1ncc(-c2cc(N3C(=O)OC[C@@H]3CO)nc(N3CCOCC3)n2)c(C(F)(F)F)n1` was run?
A: The IC50 was 21 nM.

Q: And the IC50 (PIK3CG (human))?
A: The IC50 was 529 nM.

Q: And the IC50 (PIK3CD (Human))?
A: The IC50 was 17 nM.

Q: What about the IC50 (PIK3CB (Human)) of the same molecule?
A: Its IC50 is 6 nM.

Q: How did the IC50 (PIK3CA (human)) turn out when `C[C@@H](O)C[C@H]1OC(=O)N(c2cc(-c3cnc(N)nc3C(F)(F)F)nc(N3CCOCC3)n2)[C@H]1C` was run?
A: The IC50 was 5 nM.

Q: How did the IC50 (PIK3CA (human)) turn out when `Nc1ncc(-c2cc(N3C(=O)O[C@H]4[C@H](O)CC[C@H]43)nc(N3CCOCC3)n2)c(C(F)(F)F)n1` was run?
A: The IC50 was 6 nM.

Q: And the IC50 (PIK3CG (human))?
A: The IC50 was 145 nM.

Q: What about the IC50 (PIK3CB (Human)) of the same molecule?
A: The IC50 was 48 nM.

Q: For `C[C@H]1[C@@H](CC(C)(C)O)OC(=O)N1c1cc(-c2cnc(N)nc2C(F)(F)F)nc(N2CCOCC2)n1.C[C@H]1[C@H](CC(C)(C)O)OC(=O)N1c1cc(-c2cnc(N)nc2C(F)(F)F)nc(N2CCOCC2)n1`, which IC50 (PIK3CA (human)) is on record?
A: Its IC50 is 5 nM.

Q: What about the IC50 (PIK3CG (human)) of the same molecule?
A: The IC50 was 290 nM.

Q: And the IC50 (PIK3CB (Human))?
A: The IC50 was 124 nM.

Q: Which results are given for `Nc1cc(C(F)(F)F)c(-c2cc(N3CCN(c4ccccc4)C3=O)nc(N3CCOCC3)n2)cn1`?
A: IC50 (PIK3CA (human)): 107 nM; IC50 (PIK3CG (human)): 8790 nM; IC50 (PIK3CD (Human)): 153 nM; IC50 (PIK3CB (Human)): 192 nM
